Reference: patent US6914045B2, “Glycopeptide antibiotics” (Wyeth Holdings Corporation, priority 2001, dated 2005)
Values after ≈ are worked out from the molar mass of the structure shown.

Tests used:
Experiment in all cases: in vitro antibacterial evaluation, MIC by broth dilution
Format in all cases: cell-based
Escherichia coli = settings: 18 hours at 35° C.
In short: (§1)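 Broth dilution per NCCLS M7-A2 in Mueller-Hinton II medium, inoculum 5×10^5 CFU/mL, antibiotic range 64-0.06 μg/mL. MIC taken as lowest concentration inhibiting growth; Gram-positive panel includes recent clinical isolates resistant to methicillin, penicillin and/or vancomycin.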

Staphylococcus sp. = settings: broth dilution, 18 hours at 35° C.
In short: as §1

Enterococcus sp. = settings: broth dilution, 18 hours at 35° C.
In short: as §1

Streptococcus sp. = settings: broth dilution, 18 hours at 35° C.
In short: as §1

CC(c1ccccc1)C1NC(=O)CNC(=O)C(CO)NC(=O)C(C(O)C2CNC(=N)N2C2OC(CO)C(O)C(O)C2O)NC(=O)C(C(O)C2CNC(=N)N2)NC(=O)C(Cc2ccc(OC3OC(CO)C(OC4OC5COC(Cc6ccc(Br)cc6)OC5C(O)C4O)C(O)C3O)cc2)NC1=O (stereo not drawn) [Example 118, Cyclo[glycyl-β-methylphenylalanyl-O-[4-O-[4,6-O-(4-bromophenethylidene)hexopyranosyl]-hexopyranosyl]tyrosyl-3-(2-iminoimidazolidin-4-yl)seryl-3-(3-hexopyranosyl-2-iminoimidazolidin-4-yl)serylseryl]]
MIC Escherichia coli (ATCC 25922) (Escherichia coli; strain ATCC 25922): 16 to 32 µg/mL
MIC Escherichia coli (GC 4559) (Escherichia coli; strain GC 4559): 16 µg/mL (≈ 10.8 µM)
MIC Escherichia coli (GC 4560) (Escherichia coli; strain GC 4560): 1 µg/mL (≈ 0.677 µM)
MIC Coagulase Negative Staphylococcus (GC 4547) (Staphylococcus sp.): <0.5 to 1 µg/mL
MIC Coagulase Negative Staphylococcus (GC 4548) (Staphylococcus sp.): 0.25-0.25 μg/mL
MIC Coagulase Negative Staphylococcus (GC 4551) (Staphylococcus sp.): <0.5 to 1 µg/mL
MIC Coagulase Negative Staphylococcus (GC 6257) (Staphylococcus sp.): 0.25-0.25 μg/mL
MIC Staphylococcus aureus (ATCC 29213) (Staphylococcus sp.): <0.5 to 1 µg/mL
MIC Staphylococcus aureus (GC 1131) (Staphylococcus sp.): <0.5 to 1 µg/mL
MIC Staphylococcus aureus (GC 3051) (Staphylococcus sp.): <0.5 to 1 µg/mL
MIC Staphylococcus aureus (GC 3053) (Staphylococcus sp.): 1 µg/mL (≈ 0.677 µM)
MIC Staphylococcus aureus (GC 4541) (Staphylococcus sp.): <0.5 to 1 µg/mL
MIC Staphylococcus aureus (GC 4542) (Staphylococcus sp.): <0.5 to 1 µg/mL
MIC Staphylococcus aureus (GC 4544) (Staphylococcus sp.): <0.5 to 1 µg/mL
MIC Staphylococcus aureus (GC 4545) (Staphylococcus sp.): <0.5 to 1 µg/mL
MIC Staphylococcus aureus-SMITH (GC 4543) (Staphylococcus sp.): <0.5 to 1 µg/mL
MIC Staphylococcus aureus (GC 1131) (Staphylococcus sp.; inoculum 5×10^5 CFU/mL, strain GC 1131): <0.5 to 1 µg/mL
MIC Staphylococcus aureus (ATCC 29213) (Staphylococcus sp.; strain ATCC 29213): <0.5 to 1 µg/mL
MIC Staphylococcus aureus (GC 3051) (Staphylococcus sp.; strain GC 3051): <0.5 to 1 µg/mL
MIC Staphylococcus aureus (GC 3053) (Staphylococcus sp.; strain GC 3053): 1 µg/mL (≈ 0.677 µM)
MIC Staphylococcus aureus (GC 4541) (Staphylococcus sp.; strain GC 4541): <0.5 to 1 µg/mL
MIC Staphylococcus aureus (GC 4542) (Staphylococcus sp.; strain GC 4542): <0.5 to 1 µg/mL
MIC Staphylococcus aureus (GC 4544) (Staphylococcus sp.; strain GC 4544): <0.5 to 1 µg/mL
MIC Staphylococcus aureus (GC 4545) (Staphylococcus sp.; strain GC 4545): <0.5 to 1 µg/mL
MIC Coagulase Negative Staphylococcus (GC 4547) (Staphylococcus sp.; strain GC 4547): <0.5 to 1 µg/mL
MIC Coagulase Negative Staphylococcus (GC 4548) (Staphylococcus sp.; strain GC 4548): 0.25-0.25 μg/mL
MIC Coagulase Negative Staphylococcus (GC 4551) (Staphylococcus sp.; strain GC 4551): <0.5 to 1 µg/mL
MIC Coagulase Negative Staphylococcus (GC 6257) (Staphylococcus sp.; strain GC 6257): 0.25-0.25 μg/mL
MIC Staphylococcus aureus-SMITH (GC 4543) (Staphylococcus sp.; strain SMITH GC 4543): <0.5 to 1 µg/mL
MIC Enterococcus avium (GC 4558) (Enterococcus sp.; Enterococcus avium (GC 4558)): 1 to 2 µg/mL
MIC Enterococcus faecalis (ATCC 29212) (Enterococcus sp.; Enterococcus faecalis (ATCC 29212)): 1 to 2 µg/mL
MIC Enterococcus faecalis (GC 2242) (Enterococcus sp.; Enterococcus faecalis (GC 2242)): <0.5 to 2 µg/mL
MIC Enterococcus faecalis (GC 2691) (Enterococcus sp.; Enterococcus faecalis (GC 2691)): 1 to 2 µg/mL
MIC Enterococcus faecalis (GC 3059) (Enterococcus sp.; Enterococcus faecalis (GC 3059)): 1 to 2 µg/mL
MIC Enterococcus faecalis (GC 4552) (Enterococcus sp.; Enterococcus faecalis (GC 4552)): 1 to 2 µg/mL
MIC Enterococcus faecalis (GC 4553) (Enterococcus sp.; Enterococcus faecalis (GC 4553)): 1 to 2 µg/mL
MIC Enterococcus faecalis (GC 4554) (Enterococcus sp.; Enterococcus faecalis (GC 4554)): 1 to 2 µg/mL
MIC Enterococcus faecalis (GC 6189) (Enterococcus sp.; Enterococcus faecalis (GC 6189)): 1 to 2 µg/mL
MIC Enterococcus faecium (GC 2243) (Enterococcus sp.; Enterococcus faecium (GC 2243)): 1 µg/mL (≈ 0.677 µM)
MIC Enterococcus faecium (GC 4556) (Enterococcus sp.; Enterococcus faecium (GC 4556)): <0.5 to 1 µg/mL
MIC Enterococcus faecium (GC 4557) (Enterococcus sp.; Enterococcus faecium (GC 4557)): <0.5 to 2 µg/mL
MIC Enterococcus faecalis (ATCC 29212) (Enterococcus sp.; strain ATCC 29212): 1 to 2 µg/mL
MIC Enterococcus faecalis (GC 2242) (Enterococcus sp.; strain GC 2242): <0.5 to 2 µg/mL
MIC Enterococcus faecium (GC 2243) (Enterococcus sp.; strain GC 2243): 1 µg/mL (≈ 0.677 µM)
MIC Enterococcus faecalis (GC 2691) (Enterococcus sp.; strain GC 2691): 1 to 2 µg/mL
MIC Enterococcus faecalis (GC 3059) (Enterococcus sp.; strain GC 3059): 1 to 2 µg/mL
MIC Enterococcus faecalis (GC 4552) (Enterococcus sp.; strain GC 4552): 1 to 2 µg/mL
MIC Enterococcus faecalis (GC 4553) (Enterococcus sp.; strain GC 4553): 1 to 2 µg/mL
MIC Enterococcus faecalis (GC 4554) (Enterococcus sp.; strain GC 4554): 1 to 2 µg/mL
MIC Enterococcus faecium (GC 4556) (Enterococcus sp.; strain GC 4556): <0.5 to 1 µg/mL
MIC Enterococcus faecium (GC 4557) (Enterococcus sp.; strain GC 4557): <0.5 to 2 µg/mL
MIC Enterococcus avium (GC 4558) (Enterococcus sp.; strain GC 4558): 1 to 2 µg/mL
MIC Enterococcus faecalis (GC 6189) (Enterococcus sp.; strain GC 6189): 1 to 2 µg/mL
MIC Streptococcus agalactiae (GC 4564) (Streptococcus sp.; Streptococcus agalactiae (GC 4564)): <0.06 µg/mL
MIC Streptococcus pneumoniae (ATCC 6301) (Streptococcus sp.; Streptococcus pneumoniae (ATCC 6301)): <0.06 µg/mL
MIC Streptococcus pneumoniae (GC 1894) (Streptococcus sp.; Streptococcus pneumoniae (GC 1894)): <0.06 µg/mL
MIC Streptococcus pneumoniae (GC 4565) (Streptococcus sp.; Streptococcus pneumoniae (GC 4565)): <0.06 µg/mL
MIC Streptococcus pyogenes (GC 4563) (Streptococcus sp.; Streptococcus pyogenes (GC 4563)): <0.06 µg/mL
MIC Streptococcus pneumoniae (ATCC 6301) (Streptococcus sp.; strain ATCC 6301): <0.06 µg/mL
MIC Streptococcus pneumoniae (GC 1894) (Streptococcus sp.; strain GC 1894): <0.06 µg/mL
MIC Streptococcus pyogenes (GC 4563) (Streptococcus sp.; strain GC 4563): <0.06 µg/mL
MIC Streptococcus agalactiae (GC 4564) (Streptococcus sp.; strain GC 4564): <0.06 µg/mL
MIC Streptococcus pneumoniae (GC 4565) (Streptococcus sp.; strain GC 4565): <0.06 µg/mL
